System: pressor response induced by angiotensin I
Experiment: suppression of the pressor response in the rat induced by 310 ng of angiotensin I
Format: in vivo
Conditions: 30 minutes after administration, 310 ng angiotensin I
Method: In animal experiments, the following effects, for example, were obtained: the suppression of the pressor response in the rat induced by 310 ng of angiotensin I was measured.
(a) i.v. administration (30 minutes after administration)
(b) i.d. administration (30 minutes after administration)

[1] = i.v. administration, dose 100 μg/kg

SMILES: CCOC(=O)C(CCc1ccccc1)NC(C)C(=O)N1CC2(CCCC2)CC1C(=O)O (stereo not drawn)
- % inhibition of the pressor response induced by angiotensin I (i.d. administration, dose 1 mg/kg): 85-95%
- % inhibition of the pressor response induced by angiotensin I [1]: 95%

SMILES: CCOC(=O)C(CC(=O)c1ccccc1)NC(C)C(=O)N1CC2(CCCCC2)CC1C(=O)O (stereo not drawn) [N-(1-Carboethoxy-3-oxo-3-phenylpropyl)alanyl-2-azaspiro[4.5]decane-3-carboxylic acid]
- % inhibition of the pressor response induced by angiotensin I [1]: 95%

SMILES: CCOC(=O)C(CCc1ccccc1)NC(C)C(=O)N1CC2(CCCCC2)CC1C(=O)O (stereo not drawn)
- % inhibition of the pressor response induced by angiotensin I (i.d. administration, dose 0.1 mg (so in the source)): 60-70%
- % inhibition of the pressor response induced by angiotensin I [1]: 95%

SMILES: CC(NC(CCc1ccccc1)C(=O)O)C(=O)N1CC2(CCCCCC2)CC1C(=O)O (stereo not drawn)
- % inhibition of the pressor response induced by angiotensin I [1]: 95%

— patent US4558064A, “2-Azasfiro[4.(3+N)]-3-carboxylic acid derivatives, a process for their preparation, agents containing these derivatives and their use” (Hoechst Aktiengesellschaft, priority 1982, dated 1985)
